Source: ChEMBL document CHEMBL1201862, “PubChem BioAssay data set” (2004)
Calls of active or inactive are those of the source.

Tests used:
[1] = target: Cytochrome P450 2C19 (Homo sapiens, UniProt P33261); test: Cytochrome panel assay with activity outcomes. Panel member name: p450-cyp2c19 Compounds with AC50 equal or less than 10 uM are considered active; format: functional
[2] = target: Cytochrome P450 2D6 (Homo sapiens, UniProt P10635);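 note: CYP2D6 member of a cytochrome P450 panel assay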
[3] = system: HEK293; test: cells; details: Homo sapiens
[4] = system: HEK293; test: cells; details: Homo sapiens; remark: listed apart in the source
[5] = target: T1, Short transient receptor potential channel 4 (Mus musculus, UniProt Q9QUQ5); test: calcium entry via TRPC4 opening agents – cell-based, HEK293 TRPC4/mu-opioid, Fluo-4 calcium, dose response (AID 434937); format: functional
T1 sequence (Q9QUQ5 whole entry): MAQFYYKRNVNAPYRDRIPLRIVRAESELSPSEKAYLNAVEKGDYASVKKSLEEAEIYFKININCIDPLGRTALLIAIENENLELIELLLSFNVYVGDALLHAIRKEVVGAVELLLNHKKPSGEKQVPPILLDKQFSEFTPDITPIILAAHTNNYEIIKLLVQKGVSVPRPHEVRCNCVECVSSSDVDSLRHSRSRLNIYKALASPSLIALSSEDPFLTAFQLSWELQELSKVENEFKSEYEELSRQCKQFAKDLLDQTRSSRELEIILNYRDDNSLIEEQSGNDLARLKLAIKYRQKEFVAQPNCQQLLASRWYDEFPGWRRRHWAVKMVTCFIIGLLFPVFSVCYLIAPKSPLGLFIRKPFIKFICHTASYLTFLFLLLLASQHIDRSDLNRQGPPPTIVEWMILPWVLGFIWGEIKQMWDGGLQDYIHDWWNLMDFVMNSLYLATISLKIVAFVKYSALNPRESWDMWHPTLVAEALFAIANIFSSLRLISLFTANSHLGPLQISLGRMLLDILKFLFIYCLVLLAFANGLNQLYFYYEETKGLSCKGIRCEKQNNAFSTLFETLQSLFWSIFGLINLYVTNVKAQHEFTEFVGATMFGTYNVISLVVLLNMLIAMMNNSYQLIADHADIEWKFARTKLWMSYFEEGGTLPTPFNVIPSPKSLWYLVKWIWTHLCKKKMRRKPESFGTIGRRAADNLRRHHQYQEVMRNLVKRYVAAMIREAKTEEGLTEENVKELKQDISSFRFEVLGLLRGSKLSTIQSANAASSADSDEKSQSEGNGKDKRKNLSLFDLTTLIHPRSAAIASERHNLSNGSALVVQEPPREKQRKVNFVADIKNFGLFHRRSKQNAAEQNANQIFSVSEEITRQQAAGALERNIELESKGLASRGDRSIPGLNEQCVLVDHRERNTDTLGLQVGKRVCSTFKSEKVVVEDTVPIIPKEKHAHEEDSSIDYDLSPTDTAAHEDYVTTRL

[6] = target: Delta-type opioid receptor (Homo sapiens, UniProt P41143); test: Counterscreen for agonists of heterodimerization of the mu 1 (OPRM1) and delta 1 (OPRD1) opioid receptors: Luminescence-based cell-based high throughput dose response assay to identify agonists of OPRD1 homodimerization. [Related pubchem assays (depositor defined):AID504326, AID504355, AID504692, AID504904, AID504905]; format: functional
[7] = target: Mu-type opioid receptor (Homo sapiens, UniProt P35372); test: Counterscreen for agonists of heterodimerization of the mu 1 (OPRM1) and delta 1 (OPRD1) opioid receptors: Luminescence-based cell-based high throughput dose response assay to identify agonists of OPRM1 homodimerization.; format: functional;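 note: U2OS cells expressing OPRM1 and beta-arrestin as split beta-galactosidase partners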
[8] = target: 5-hydroxytryptamine receptor 5A (Homo sapiens, UniProt P47898); test: Counterscreen for agonists of OPRM1-OPRD1 heterodimerization: luminescence-based cell-based high throughput dose response assay to identify agonists of 5-hydroxytryptamine (serotonin) 5A receptor (HTR5A). [Related pubchem assays (depositor defined):AID504326, AID504355, AID504692, AID504904, AID504905]; format: functional
[9] = target: CAAX prenyl protease 2 (Homo sapiens, UniProt Q9Y256); test: inhibition of Ras-converting CAAX protease Rce1 – biochemical, yeast membranes, quenched-peptide fluorescence, cherry-pick, dose response (AID 588849)
Sequence of CAAX prenyl protease 2 (Q9Y256 whole entry): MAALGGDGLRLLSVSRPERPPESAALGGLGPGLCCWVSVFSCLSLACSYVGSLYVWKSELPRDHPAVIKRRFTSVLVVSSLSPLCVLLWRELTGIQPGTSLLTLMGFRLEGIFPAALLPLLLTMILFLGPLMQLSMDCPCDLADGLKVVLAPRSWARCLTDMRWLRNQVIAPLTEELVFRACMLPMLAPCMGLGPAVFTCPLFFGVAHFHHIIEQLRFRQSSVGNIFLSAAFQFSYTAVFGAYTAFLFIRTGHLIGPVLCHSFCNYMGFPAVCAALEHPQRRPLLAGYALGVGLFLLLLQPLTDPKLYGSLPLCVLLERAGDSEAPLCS

Sequence of Cytochrome P450 2D6 (P10635 whole entry): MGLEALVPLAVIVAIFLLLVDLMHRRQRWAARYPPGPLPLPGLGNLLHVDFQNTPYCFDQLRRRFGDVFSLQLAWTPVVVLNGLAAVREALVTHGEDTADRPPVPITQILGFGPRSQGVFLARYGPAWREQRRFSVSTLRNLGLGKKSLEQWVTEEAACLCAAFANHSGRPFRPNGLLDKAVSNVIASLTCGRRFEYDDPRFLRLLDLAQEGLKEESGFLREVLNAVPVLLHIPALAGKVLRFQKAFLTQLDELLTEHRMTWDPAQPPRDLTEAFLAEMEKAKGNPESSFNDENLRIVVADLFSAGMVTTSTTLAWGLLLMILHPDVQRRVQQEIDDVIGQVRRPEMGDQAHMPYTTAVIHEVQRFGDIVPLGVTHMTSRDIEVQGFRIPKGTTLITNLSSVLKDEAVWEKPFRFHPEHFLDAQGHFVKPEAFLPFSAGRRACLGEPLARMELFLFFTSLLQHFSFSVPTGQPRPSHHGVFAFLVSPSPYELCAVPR
Sequence of Cytochrome P450 2C19 (P33261 whole entry): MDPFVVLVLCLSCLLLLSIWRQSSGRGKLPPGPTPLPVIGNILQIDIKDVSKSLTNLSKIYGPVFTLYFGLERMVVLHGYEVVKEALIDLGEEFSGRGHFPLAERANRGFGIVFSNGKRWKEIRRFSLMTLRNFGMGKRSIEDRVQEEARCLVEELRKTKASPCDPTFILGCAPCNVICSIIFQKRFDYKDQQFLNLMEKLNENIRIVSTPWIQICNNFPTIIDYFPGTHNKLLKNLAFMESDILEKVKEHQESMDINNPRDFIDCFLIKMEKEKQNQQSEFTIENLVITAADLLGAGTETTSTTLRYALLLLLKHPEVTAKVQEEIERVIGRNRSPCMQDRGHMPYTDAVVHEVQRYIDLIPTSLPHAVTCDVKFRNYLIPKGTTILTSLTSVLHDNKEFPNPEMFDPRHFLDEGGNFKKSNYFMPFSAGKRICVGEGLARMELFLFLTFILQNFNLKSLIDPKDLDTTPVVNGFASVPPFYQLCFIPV
Sequence of Mu-type opioid receptor (P35372 whole entry): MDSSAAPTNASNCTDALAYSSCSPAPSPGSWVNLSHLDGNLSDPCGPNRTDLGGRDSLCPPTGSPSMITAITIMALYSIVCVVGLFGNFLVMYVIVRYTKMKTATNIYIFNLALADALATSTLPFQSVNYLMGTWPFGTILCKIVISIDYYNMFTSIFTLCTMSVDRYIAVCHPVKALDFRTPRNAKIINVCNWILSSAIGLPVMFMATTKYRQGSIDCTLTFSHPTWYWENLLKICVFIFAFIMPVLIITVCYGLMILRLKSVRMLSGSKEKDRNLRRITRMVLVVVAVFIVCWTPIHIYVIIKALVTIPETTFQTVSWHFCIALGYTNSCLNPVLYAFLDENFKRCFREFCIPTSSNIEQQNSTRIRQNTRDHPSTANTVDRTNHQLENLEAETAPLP
Sequence of Delta-type opioid receptor (P41143 whole entry): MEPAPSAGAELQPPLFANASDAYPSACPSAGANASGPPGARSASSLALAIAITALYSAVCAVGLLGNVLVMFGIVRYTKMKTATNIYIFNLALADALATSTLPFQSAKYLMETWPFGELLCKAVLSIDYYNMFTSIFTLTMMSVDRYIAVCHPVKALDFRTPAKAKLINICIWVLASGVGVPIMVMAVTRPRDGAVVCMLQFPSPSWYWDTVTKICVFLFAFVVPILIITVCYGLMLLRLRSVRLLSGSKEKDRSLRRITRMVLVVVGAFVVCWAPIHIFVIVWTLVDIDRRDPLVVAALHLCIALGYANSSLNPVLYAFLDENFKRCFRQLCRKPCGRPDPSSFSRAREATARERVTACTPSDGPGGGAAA
Sequence of 5-hydroxytryptamine receptor 5A (P47898 whole entry): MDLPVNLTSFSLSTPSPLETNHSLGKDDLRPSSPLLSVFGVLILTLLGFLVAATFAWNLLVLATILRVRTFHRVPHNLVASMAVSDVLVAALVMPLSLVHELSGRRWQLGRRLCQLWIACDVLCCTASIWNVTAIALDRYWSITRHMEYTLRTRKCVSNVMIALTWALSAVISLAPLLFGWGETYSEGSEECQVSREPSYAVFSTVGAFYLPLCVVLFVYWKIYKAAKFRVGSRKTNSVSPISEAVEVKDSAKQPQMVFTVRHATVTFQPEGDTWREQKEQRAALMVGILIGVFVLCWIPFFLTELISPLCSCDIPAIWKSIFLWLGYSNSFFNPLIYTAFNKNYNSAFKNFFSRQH

C[N+](C)(N)CCC[N+](C)(C)N
AC50 [1]: inconclusive
AC50 [2]: inconclusive

CCc1nn(C(CC)C(=O)NCCc2ccc(OC)cc2OC)c(=O)c2cc3occc3n12 (centres undefined)
EC50 [3]: > 59.6 µM (inactive)
EC50 [4]: > 59.6 µM (inactive)

Cc1cccc(NC(S)=NCC(c2cccnc2)N(C)C)c1 (centres undefined)
EC50 [5]: 0.0267 µM (active)
EC50 [6]: > 92.5 µM (inactive)
EC50 [7]: 15.6 µM (inactive)
EC50 [8]: > 92.5 µM (inactive)

Cc1ccc(CNC(=O)c2cc(-c3ccccc3)nn2CC2CC(c3cccc([N+](=O)[O-])c3)=NO2)cc1 (centres undefined)
AC50 [9]: 30 µM (active)
